Source: PubChem BioAssay (NCI)
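Each compound was tested at five concentrations against cells in 96-well plates for 48 hours. At the GI50, growth is halved. At the TGI there is no net growth.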

Tests used:
Assay in all cases: NCI-60 cell line screen, 48 h; in the data active = GI50 below about 0.43 µM; inactive = the rest
[1] = test system: HS 578T breast
[2] = test system: EKVX NSCLC
[3] = test system: SK-MEL-28 melanoma
[4] = test system: NCI-H23 lung
[5] = test system: UO-31 renal
[6] = test system: OVCAR-4 ovarian
[7] = test system: NCI-H522 lung
[8] = test system: UACC-62 melanoma
[9] = test system: ACHN renal
[10] = test system: LOX IMVI melanoma
[11] = test system: TK-10 renal
[12] = test system: 786-0 renal
[13] = test system: M14 melanoma
[14] = test system: NCI/ADR-RES ovarian
[15] = test system: SK-OV-3 ovarian
[16] = test system: MDA-MB-435
[17] = test system: RXF 393 renal
[18] = test system: NCI-H460 lung
[19] = test system: MDA-MB-231 breast
[20] = test system: RPMI-8226 leukemia
[21] = test system: MOLT-4 leukemia
[22] = test system: BT-549 breast
[23] = test system: K-562 leukemia
[24] = test system: MDA-N
[25] = test system: SR leukemia
[26] = test system: MCF7 breast
[27] = test system: KM12 colon
[28] = test system: HCT-116 colon
[29] = test system: OVCAR-3 ovarian
[30] = test system: SN12C renal
[31] = test system: SK-MEL-5 melanoma
[32] = test system: HT29 colon
[33] = test system: U251 CNS
[34] = test system: IGROV1 ovarian
[35] = test system: A549 NSCLC
[36] = test system: PC-3 prostate
[37] = test system: UACC-257 melanoma
[38] = test system: SW-620 colon
[39] = test system: CCRF-CEM leukemia
[40] = test system: DU-145 prostate
[41] = test system: SF-295 CNS
[42] = test system: MALME-3M melanoma
[43] = test system: SK-MEL-2 melanoma
[44] = test system: OVCAR-8 ovarian
[45] = test system: CAKI-1 renal
[46] = test system: SNB-75 CNS
[47] = test system: SNB-19 CNS
[48] = test system: SF-268 CNS
[49] = test system: SF-539 CNS
[50] = test system: HCT-15 colon
[51] = test system: HCC-2998 colon
[52] = test system: COLO 205 colon
[53] = test system: HOP-92 NSCLC
[54] = test system: OVCAR-5 ovarian
[55] = test system: A498 renal
[56] = test system: HOP-62 NSCLC
[57] = test system: NCI-H226 lung
[58] = test system: HL-60(TB) leukemia

FC(F)(F)c1ccc(C2=N/S(c3ccccc3)=N\C(c3ccc(C(F)(F)F)cc3)=N/S(c3ccccc3)=N\2)cc1 (stereo unspecified)
> 100 µM: TGI [1] | TGI [2] | TGI [3] | TGI [4] | TGI [5] | TGI [6] | TGI [7] | TGI [8] | TGI [9] | TGI [10] | TGI [11] | TGI [12] | TGI [13] | TGI [14] | TGI [15] | TGI [16] | TGI [17] | TGI [18] | TGI [19] | TGI [20] | TGI [21] | TGI [22] | TGI [23] | TGI [24] | TGI [25] | TGI [26] | TGI [27] | TGI [28] | TGI [29] | TGI [30] | TGI [31] | TGI [32] | TGI [33] | TGI [34] | TGI [35] | TGI [36] | TGI [37] | TGI [38] | TGI [39] | TGI [40] | TGI [41] | TGI [42] | TGI [43] | TGI [44] | TGI [45] | TGI [46] | TGI [47] | TGI [48] | TGI [49] | TGI [50] | TGI [51] | TGI [52] | TGI [53] | TGI [54]

O=C1C(=C2SC(c3ccccc3)(c3ccccc3)c3ccccc32)C(=O)c2ccccc21
> 100 µM: TGI [1] | TGI [2] | TGI [3] | TGI [4] | TGI [5] | TGI [6] | TGI [7] | TGI [8] | TGI [9] | TGI [10] | TGI [11] | TGI [12] | TGI [13] | TGI [14] | TGI [15] | TGI [16] | TGI [55] | TGI [17] | TGI [18] | TGI [19] | TGI [20] | TGI [21] | TGI [22] | TGI [23] | TGI [24] | TGI [25] | TGI [26] | TGI [27] | TGI [28] | TGI [29] | TGI [30] | TGI [31] | TGI [32] | TGI [33] | TGI [34] | TGI [35] | TGI [36] | TGI [37] | TGI [38] | TGI [39] | TGI [40] | TGI [41] | TGI [42] | TGI [44] | TGI [45] | TGI [46] | TGI [47] | TGI [48] | TGI [49] | TGI [50] | TGI [56] | TGI [51] | TGI [52] | TGI [53] | TGI [54] | TGI [57]

CSc1cc(Cl)c(C)cc1S(=O)(=O)NC(=O)Nc1ccc(Cl)cc1
38.4 µM: TGI [51]
88 µM: TGI [16]
87.8 µM: TGI [2]
14.8 µM: TGI [8]
84.1 µM: TGI [50]
39.2 µM: TGI [39]
92 µM: TGI [47]
79.8 µM: TGI [37]
85.1 µM: TGI [42]
45.1 µM: TGI [57]
28 µM: TGI [58]
81.5 µM: TGI [11]
40.4 µM: TGI [4]
63.2 µM: TGI [56]
31.5 µM: TGI [5]
52.5 µM: TGI [10]
35.7 µM: TGI [28]
45.5 µM: TGI [53]
62.1 µM: TGI [46]
74 µM: TGI [29]
29.8 µM: TGI [52]
97.1 µM: TGI [14]
49 µM: TGI [43]
92.7 µM: TGI [38]
64.9 µM: TGI [31]
51.7 µM: TGI [17]
> 100 µM: TGI [1] | TGI [3] | TGI [6] | TGI [9] | TGI [12] | TGI [13] | TGI [15] | TGI [55] | TGI [18] | TGI [19] | TGI [20] | TGI [22] | TGI [23] | TGI [24] | TGI [25] | TGI [26] | TGI [30] | TGI [32] | TGI [33] | TGI [34] | TGI [35] | TGI [36] | TGI [41] | TGI [44] | TGI [45] | TGI [48] | TGI [54]
41.4 µM: TGI [7]
40.9 µM: TGI [21]
80.8 µM: TGI [27]

CCC(C)C1=NC(C(=O)N/C=C\c2c[nH]c3cc(Br)c(Br)cc23)(C(C)C)NC1=O (stereo unspecified)
25.1 µM: TGI [31] | TGI [36]
30.1 µM: TGI [41] | TGI [48]
35.8 µM: TGI [23]
34.9 µM: TGI [15]
36.3 µM: TGI [56]
37.1 µM: TGI [25]
44.3 µM: TGI [27]
29.2 µM: TGI [17]
42.5 µM: TGI [49]
24.4 µM: TGI [16]
inactive: GI50 [1] 21.4 µM | GI50 [2] 5.98 µM | GI50 [3] 15 µM | GI50 [4] 16 µM | GI50 [5] 12.2 µM | GI50 [58] 33.7 µM | GI50 [6] 11.1 µM | GI50 [7] 13.5 µM | GI50 [8] 12 µM | GI50 [9] 18.3 µM | GI50 [10] 16.6 µM | GI50 [11] 18.5 µM | GI50 [12] 20.2 µM | GI50 [13] 14 µM | GI50 [14] 27.3 µM | GI50 [15] 18.6 µM | GI50 [16] 12 µM | GI50 [55] 17.8 µM | GI50 [17] 15.4 µM | GI50 [18] 12.9 µM | GI50 [19] 17.4 µM | GI50 [20] 8.75 µM | GI50 [21] 15.2 µM | GI50 [22] 23.7 µM | GI50 [23] 16.5 µM | GI50 [24] 15.4 µM | GI50 [25] 17 µM | GI50 [26] 13.6 µM | GI50 [27] 18.5 µM | GI50 [28] 15.6 µM | GI50 [29] 5.38 µM | GI50 [30] 18.3 µM | GI50 [31] 11.7 µM | GI50 [32] 18.3 µM | GI50 [33] 14.1 µM | GI50 [34] 6.36 µM | GI50 [35] 11.7 µM | GI50 [36] 10.1 µM | GI50 [37] 15.3 µM | GI50 [38] 16.9 µM | GI50 [39] 18.2 µM | GI50 [40] 14.3 µM | GI50 [41] 15.9 µM | GI50 [42] 20.6 µM | GI50 [43] 12.3 µM | GI50 [44] 32.3 µM | GI50 [45] 12.2 µM | GI50 [46] 3.37 µM | GI50 [47] 18.5 µM | GI50 [48] 15 µM | GI50 [49] 21 µM | GI50 [50] 28.1 µM | GI50 [56] 19.8 µM | GI50 [52] 14 µM | GI50 [54] 15.4 µM
31.9 µM: TGI [10]
35 µM: TGI [55] | TGI [47]
26.9 µM: TGI [8]
39.3 µM: TGI [19] | TGI [42]
29 µM: TGI [33] | TGI [54]
39 µM: TGI [20]
42.9 µM: TGI [12]
27.4 µM: TGI [40]
39.6 µM: TGI [9]
32.3 µM: TGI [6]
31.3 µM: TGI [28]
79.6 µM: TGI [50]
38.2 µM: TGI [38]
24.6 µM: TGI [5]
18.4 µM: TGI [29]
26.5 µM: TGI [35]
19.7 µM: TGI [34]
37.5 µM: TGI [30]
26.4 µM: TGI [7]
59.6 µM: TGI [58]
44.4 µM: TGI [32]
> 100 µM: TGI [14] | TGI [39] | TGI [44]
10.2 µM: TGI [46]
30.3 µM: TGI [21]
68.4 µM: TGI [1]
26.7 µM: TGI [18] | TGI [43]
27.3 µM: TGI [13]
26.8 µM: TGI [45]
28.6 µM: TGI [37]
32.7 µM: TGI [3]
35.7 µM: TGI [11]
20 µM: TGI [2]
29.4 µM: TGI [4]
29.6 µM: TGI [26]
30 µM: TGI [24]
29.3 µM: TGI [52]
71.2 µM: TGI [22]
